{
  "source": "patent US20060051295A1",
  "about": "“Estrogen receptor interaction with a transcription factor” (priority 2002, published 2006)",
  "tested_on": "cRel + ER beta",
  "assay": "Transrepression of c-Rel induced reporters, U-2 OS co-transfected with ERβ",
  "assay_type": "cell-based, human",
  "protocol": "Next was determined whether transrepression by ER is limited to particular NF-κB types, such as c-Rel or RelA, by overexpression of these NF-κB proteins in U-2 OS cells (Table 2). Again, the promoter-reporter constructs for the E-selectin, ICAM and VCAM genes were used in these experiments. Significant activation of these reporters by overexpression of c-Rel was observed. This activation was strongly and reproducibly transrepressed by both ERα and ERβ (Table 2).\nTable 2. Estrogen-dependent transrepression of the promoters from E-selectin, VCAM and ICAM and a synthetic NF-κB responsive reporter, measured as the amount of luciferase activity. Transient (co-)transfections of ERα (or ERβ) and reporter were performed in U-2 OS cells. Reporter activity was induced by cellular exposure to Il-1β or by co-transfection of the NF-κB genes c-Rel or RelA. […] For detailed information on the composition of the reporters used, see appendix 1. The hyphen (-) in the table indicates the test with cells without transfected cDNA and no additives in medium; n.d. means: not determined.\nFor transient transfections, cells were seeded in 6-well plates (2.10^5 cells/well). After two or three days the cells were transfected with reporter, expression vectors and β-galactosidase control vector. Two different experimental settings were used. For testing transrepression of IL-1β induced promoter activity, cells were transfected with 1 μg reporter construct, 1 μg expression vector (containing either ERα, ERβ or GR), and 0.25 μg of β-galactosidase control plasmid. For testing transrepression in combination with c-Rel or ReLA overexpression, cells were transfected with 1 μg reporter construct, 1 μg expression vector (containing either ERα, ERβ or GR) and 0.1 or 1.0 μg expression vector containing c-Rel or RelA and 0.25 μg of β-galactosidase control vector. Equivalent amounts of DNA were obtained by adding the appropriate expression vector that lacks an insert. Transient transfection was performed using lipofectin reagent (Life Technologies). […] The transfected cells were incubated overnight with test compounds prior to cell lysis. Measurement of luciferase and P-galactosidase activity were performed using respectively the luciferase assay system (Promega) and Galacto-light plus (Tropix) according to the manufacturers' protocols and measured on the Victor 1420 multilabel counter, Wallac. Detection of β-galactosidase activity was used as a control for transfection efficiency.",
  "data": [
    {"molecule": "C[C@]12CC[C@@H]3c4ccc(O)cc4CC[C@H]3[C@@H]1CC[C@@H]2O", "note": "[Org E2, 17β-estradiol]", "values": [
      {"measurement": "luciferase activity, ELAM+ reporter", "result": 3708},
      {"measurement": "luciferase activity, ELAM− reporter", "result": 1495},
      {"measurement": "luciferase activity, ICAM reporter", "result": 1611},
      {"measurement": "luciferase activity, VCAM reporter", "result": 882}
    ]}
  ]
}
